Results taken from patent US8436043B2 (Takeda Pharmaceutical Company Limited, priority 2008, dated 2013).

Molecular target: T1, human glucagon receptor (Homo sapiens, UniProt P47871)
T1 construct: made in house; host or cells: FreeStyle CHO cells, transient transfection with pMSRαneo/hGCGR; membrane fraction (35,000 rpm pellet)
Assay: Glucagon binding inhibitory activity ([125I]-glucagon binding to glucagon receptor membrane protein)
Details: human glucagon receptor membrane protein, [125I]-glucagon, 90 min room temperature
How it was run: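 Receptor source was a membrane fraction of transiently transfected CHO cells bearing human receptor; 90 min room-temperature binding, filtration harvest, scintillation counting.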

T1 sequence (P47871 26-477): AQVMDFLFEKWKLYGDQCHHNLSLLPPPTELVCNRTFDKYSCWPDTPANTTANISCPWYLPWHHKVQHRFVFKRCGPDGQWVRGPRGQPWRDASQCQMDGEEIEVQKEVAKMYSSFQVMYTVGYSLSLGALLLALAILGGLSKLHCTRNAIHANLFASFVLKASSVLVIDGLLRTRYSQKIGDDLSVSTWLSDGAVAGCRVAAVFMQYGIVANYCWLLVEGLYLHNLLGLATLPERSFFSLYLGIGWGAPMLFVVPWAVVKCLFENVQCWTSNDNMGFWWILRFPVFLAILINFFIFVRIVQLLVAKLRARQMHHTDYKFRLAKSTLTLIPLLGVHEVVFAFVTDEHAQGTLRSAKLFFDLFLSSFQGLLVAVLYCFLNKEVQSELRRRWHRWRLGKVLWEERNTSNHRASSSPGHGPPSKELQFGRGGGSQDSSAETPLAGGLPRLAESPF

SMILES	IC50
CC(C)c1nn(-c2ccc(C(F)(F)F)cn2)cc1C(Nc1ccc(C(=O)N(C)CCC(=O)O)cc1)C1CCCCC1 (stereo not shown) [Example 8, 3-[({4-[(cyclohexyl{3-(1-methylethyl)-1-[5-(trifluoromethyl)pyridin-2-yl]-1H-pyrazol-4-yl}methyl)amino]phenyl}carbonyl)(methyl)amino]propanoic acid]	410 nM

Same assay, conditions: test compound 10 μM; 0.4% DMSO = 0%, non-labeled glucagon 1 μM = 100%

SMILES	inhibitory rate (%) at 10 μM
COc1ccc2oc(C(Nc3ccc(C(=O)N(C)CCC(=O)O)cc3)C3CCCCC3)c(C)c2c1 (stereo not shown) [Example A44, 3-{[(4-{[cyclohexyl(5-methoxy-3-methyl-1-benzofuran-2-yl)methyl]amino}phenyl)carbonyl](methyl)amino}propanoic acid]	82%

Same assay, conditions: test compound 10 μM; 0.4% DMSO = 0%, non-labeled glucagon 1 μM = 100%; read-out: inhibitory rate (%) at 10 μM

SMILES	inhibition at 10 µM
Cc1c(C(Nc2ccc(C(=O)N(C)CCC(=O)O)cc2)C2CCCCC2)oc2ccc(-c3ccccc3)cc12 (stereo not shown) [Example A176, 3-{[(4-{[cyclohexyl(3-methyl-5-phenyl-1-benzofuran-2-yl)methyl]amino}phenyl)carbonyl](methyl)amino}propanoic acid]	96%
Cc1c(C(Nc2ccc(C(=O)NCCC(=O)O)cn2)C2CCCCC2)oc2ccc(F)cc12 (stereo not shown) [Example A51, 3-{[(6-{[cyclohexyl(5-fluoro-3-methyl-1-benzofuran-2-yl)methyl]amino}pyridin-3-yl)carbonyl]amino}propanoic acid]	71%
CSCCOc1ccc2oc(C(Nc3ccc(C(=O)NCCC(=O)O)cc3)C3CCCCC3)c(C)c2c1 (stereo not shown) [Example A148, 3-[({4-[(cyclohexyl{3-methyl-5-[2-(methylthio)ethoxy]-1-benzofuran-2-yl}methyl)amino]phenyl}carbonyl)amino]propanoic acid]	94%
CC(C)(C)c1nn(-c2ccc(C(F)(F)F)cn2)cc1C(Nc1ccc(C(=O)NCCC(=O)O)cc1)C1CCCCC1 (stereo not shown) [Example 13, 3-{[(4-{[{3-tert-butyl-1-[5-(trifluoromethyl)pyridin-2-yl]-1H-pyrazol-4-yl}(cyclohexyl)methyl]amino}phenyl)carbonyl]amino}propanoic acid]	71%
Cc1nn(-c2ccccc2Cl)cc1C(Nc1ccc(C(=O)N(C)CCC(=O)O)cc1)C1CCCCC1 (stereo not shown) [Example 73, 3-[{[4-({[1-(2-chlorophenyl)-3-methyl-1H-pyrazol-4-yl](cyclohexyl)methyl}amino)phenyl]carbonyl}(methyl)amino]-propanoic acid]	59%
Cc1nn(-c2ccc(C(F)(F)F)cc2)cc1C(Nc1ccc(C(=O)N(C)CCC(=O)O)cc1)C1CCCCC1 (stereo not shown) [Example 28, 3-[({4-[(cyclohexyl{3-methyl-1-[4-(trifluoromethyl)phenyl]-1H-pyrazol-4-yl}methyl)amino]phenyl}carbonyl)(methyl)amino]propanoic acid]	71%
COCc1c(C(Nc2ccc(C(=O)NCCC(=O)O)cc2)C2CCCCC2)oc2ccc(F)cc12 (stereo not shown) [Example A47, 3-({[4-({cyclohexyl[5-fluoro-3-(methoxymethyl)-1-benzofuran-2-yl]methyl}amino)phenyl]carbonyl}amino)propanoic acid]	67%
O=C(O)CCNC(=O)c1ccc(NC(c2cn(-c3ccc(C(F)(F)F)cn3)nc2CCc2ccccc2)C2CCCCC2)cc1 (stereo not shown) [Example 11, 3-[({4-[(cyclohexyl{3-(2-phenylethyl)-1-[5-(trifluoromethyl)pyridin-2-yl]-1H-pyrazol-4-yl}methyl)amino]phenyl}carbonyl)amino]propanoic acid]	73%
CC(C)c1nn(-c2ccc(C(F)(F)F)cn2)cc1C(Nc1ccc(C(=O)N(C)CCC(=O)O)cc1)C1CCCCC1 (stereo not shown) [Example 8, 3-[({4-[(cyclohexyl{3-(1-methylethyl)-1-[5-(trifluoromethyl)pyridin-2-yl]-1H-pyrazol-4-yl}methyl)amino]phenyl}carbonyl)(methyl)amino]propanoic acid]	75%
CCNC(=O)Nc1ccc2oc(C(Nc3ccc(C(=O)N(C)CCC(=O)O)cc3)C3CCCCC3)c(C)c2c1 (stereo not shown) [Example A115, 3-[({4-[(cyclohexyl{5-[(ethylcarbamoyl)amino]-3-methyl-1-benzofuran-2-yl}methyl)amino]phenyl}carbonyl)(methyl)amino]propanoic acid]	53%
COc1ccc(-n2cc(C(Nc3ccc(C(=O)N(C)CCC(=O)O)cc3)C3CCCCC3)c(C3CC3)n2)cc1 (stereo not shown) [Example 47, 3-[{[4-({cyclohexyl[3-cyclopropyl-1-(4-methoxyphenyl)-1H-pyrazol-4-yl]methyl}amino)phenyl]carbonyl}(methyl)amino]propanoic acid]	66%
CCOc1cccc(-n2cc(C(Nc3ccc(C(=O)NCCC(=O)O)cc3)C3CCCCC3)c(CC)n2)c1 (stereo not shown) [Example 84, 3-({[4-({cyclohexyl[1-(3-ethoxyphenyl)-3-ethyl-1H-pyrazol-4-yl]methyl}amino)phenyl]carbonyl}amino)propanoic acid]	76%
CCc1nn(-c2cc(F)cc(F)c2)cc1C(Nc1ccc(C(=O)N(C)CCC(=O)O)cc1)C1CCCCC1 (stereo not shown) [Example 87, 3-[{[4-({cyclohexyl[1-(3,5-difluorophenyl)-3-ethyl-1H-pyrazol-4-yl]methyl}amino)phenyl]carbonyl}(methyl)amino]propanoic acid]	64%
COc1ccc2oc(C(CCCCSC)Nc3ccc(C(=O)N(C)CCC(=O)O)cc3)c(C)c2c1 (stereo not shown) [Example A121, 3-{[(4-{[1-(5-methoxy-3-methyl-1-benzofuran-2-yl)-5-(methylsulfanyl)pentyl]amino}phenyl)carbonyl](methyl)amino}-propanoic acid]	59%
Cc1nn(-c2ccc(C(F)(F)F)cn2)cc1C(Nc1ccc(C(=O)NCCC(=O)O)cc1)C1CCCCC1 (stereo not shown) [Example 1, 3-[({4-[(Cyclohexyl{3-methyl-1-[5-(trifluormethyl)pyridin-2-yl]-1H-pyrazol-4-yl}methyl)amino]phenyl}carbonyl)amino]propanoic acid]	73%
Cc1c(C(Nc2ccc(C(=O)N(C)CCC(=O)O)cc2)C2CCCCC2)oc2ccc(OCc3ccncc3)cc12 (stereo not shown) [Example A157, 3-[{[4-({cyclohexyl[3-methyl-5-(pyridin-4-ylmethoxy)-1-benzofuran-2-yl]methyl}amino)phenyl]carbonyl}(methyl)amino]propanoic acid]	80%
CCCCCCC(Nc1ccc(C(=O)NCCC(=O)O)cc1)c1cc2cc(Cl)ccc2n1-c1cccc(C(F)(F)F)c1 (stereo not shown) [Example A106, 3-[({4-[(1-{5-chloro-1-[3-(trifluoromethyl)phenyl]-1H-indol-2-yl}heptyl)amino]phenyl}carbonyl)amino]propanoic acid]	69%
CN(CCC(=O)O)C(=O)c1ccc(NC(c2cn(-c3ccccc3)nc2CCc2ccccc2)C2CCCCC2)cc1 (stereo not shown) [Example 16, 3-[{[4-({cyclohexyl[1-phenyl-3-(2-phenylethyl)-1H-pyrazol-4-yl]methyl}amino)phenyl]carbonyl}(methyl)amino]propanoic acid]	63%
CCc1nn(-c2ccc(C(F)(F)F)cn2)cc1C(Nc1ccc(C(=O)N(C)CCC(=O)O)cc1)C1CCCCC1 (stereo not shown) [Example 4, 3-[({4-[(cyclohexyl{3-ethyl-1-[5-(trifluoromethyl)pyridin-2-yl]-1H-pyrazol-4-yl}methyl)amino]phenyl}carbonyl)(methyl)amino]propanoic acid]	77%
Cc1c(C(Nc2ccc(C(=O)N(C)CCC(=O)O)cc2)C2CCCCC2)oc2ccc(OC3CCOCC3)cc12 (stereo not shown) [Example A82, 3-[{[4-({cyclohexyl[3-methyl-5-(tetrahydro-2H-pyran-4-yloxy)-1-benzofuran-2-yl]methyl}amino)phenyl]carbonyl}(methyl)amino]propanoic acid]	89%
